Measurements taken from BigSolDB 2.1.

Compound CN1CCN(C2=Nc3cc(Cl)ccc3Nc3ccccc32)CC1 has a solubility (mole fraction) (in 1,2-dichloroethane, 283.15 K) of 0.0117, a solubility (mole fraction) (in 1,2-dichloroethane, 288.15 K) of 0.0157 and a solubility (mole fraction) (in 1,2-dichloroethane, 293.15 K) of 0.0183. For the same compound, the solubility (mole fraction) (in 1,2-dichloroethane, 298.15 K) was 0.0215, the solubility (mole fraction) (in 1,2-dichloroethane, 303.15 K) was 0.0243 and the solubility (mole fraction) (in 1,2-dichloroethane, 308.15 K) was 0.0285. It also gave a solubility (mole fraction) (in 1,2-dichloroethane, 313.15 K) of 0.0314, a solubility (mole fraction) (in 1,2-dichloroethane, 318.15 K) of 0.0386 and a solubility (mole fraction) (in 1,2-dichloroethane, 323.15 K) of 0.0464. For the same compound, the solubility (mole fraction) (in 1,2-dichloroethane, 328.15 K) was 0.0573, the solubility (mole fraction) (in 1,2-dichloroethane, 333.15 K) was 0.0648 and the solubility (mole fraction) (in DMF, 283.15 K) was 0.0781. For the same compound, the solubility (mole fraction) (in DMF, 288.15 K) was 0.0844, the solubility (mole fraction) (in DMF, 293.15 K) was 0.0893 and the solubility (mole fraction) (in DMF, 298.15 K) was 0.0936. For the same compound, the solubility (mole fraction) (in DMF, 303.15 K) was 0.101, the solubility (mole fraction) (in DMF, 308.15 K) was 0.111 and the solubility (mole fraction) (in DMF, 313.15 K) was 0.122. It also gave a solubility (mole fraction) (in DMF, 318.15 K) of 0.133, a solubility (mole fraction) (in DMF, 323.15 K) of 0.145 and a solubility (mole fraction) (in DMF, 328.15 K) of 0.155. For the same compound, the solubility (mole fraction) (in DMF, 333.15 K) was 0.17, the solubility (mole fraction) (in DMSO, 293.15 K) was 0.0596 and the solubility (mole fraction) (in DMSO, 298.15 K) was 0.064. The solubility (mole fraction) (in DMSO, 303.15 K) was 0.0709, the solubility (mole fraction) (in DMSO, 308.15 K) was 0.0836 and the solubility (mole fraction) (in DMSO, 313.15 K) was 0.0949. For the same compound, the solubility (mole fraction) (in DMSO, 318.15 K) was 0.109, the solubility (mole fraction) (in DMSO, 323.15 K) was 0.119 and the solubility (mole fraction) (in DMSO, 328.15 K) was 0.139. The solubility (mole fraction) (in DMSO, 333.15 K) was 0.159, the solubility (mole fraction) (in NMP, 283.15 K) was 0.0305 and the solubility (mole fraction) (in NMP, 288.15 K) was 0.0406. It also gave a solubility (mole fraction) (in NMP, 293.15 K) of 0.0474, a solubility (mole fraction) (in NMP, 298.15 K) of 0.0525 and a solubility (mole fraction) (in NMP, 303.15 K) of 0.0606. It also gave a solubility (mole fraction) (in NMP, 308.15 K) of 0.0687, a solubility (mole fraction) (in NMP, 313.15 K) of 0.075 and a solubility (mole fraction) (in NMP, 318.15 K) of 0.0827. For the same compound, the solubility (mole fraction) (in NMP, 323.15 K) was 0.0987, the solubility (mole fraction) (in NMP, 328.15 K) was 0.113 and the solubility (mole fraction) (in NMP, 333.15 K) was 0.118. The solubility (mole fraction) (in acetone, 283.15 K) was 0.00791, the solubility (mole fraction) (in acetone, 288.15 K) was 0.00914 and the solubility (mole fraction) (in acetone, 293.15 K) was 0.0122. For the same compound, the solubility (mole fraction) (in acetone, 298.15 K) was 0.0139, the solubility (mole fraction) (in acetone, 303.15 K) was 0.0164 and the solubility (mole fraction) (in acetone, 308.15 K) was 0.018. The solubility (mole fraction) (in acetone, 313.15 K) was 0.0201, the solubility (mole fraction) (in acetone, 318.15 K) was 0.0236 and the solubility (mole fraction) (in acetone, 323.15 K) was 0.0278. The solubility (mole fraction) (in benzene, 283.15 K) was 0.00583, the solubility (mole fraction) (in benzene, 288.15 K) was 0.00619 and the solubility (mole fraction) (in benzene, 293.15 K) was 0.00676. The solubility (mole fraction) (in benzene, 298.15 K) was 0.00771, the solubility (mole fraction) (in benzene, 303.15 K) was 0.00967 and the solubility (mole fraction) (in benzene, 308.15 K) was 0.0119. For the same compound, the solubility (mole fraction) (in benzene, 313.15 K) was 0.0152, the solubility (mole fraction) (in benzene, 318.15 K) was 0.0181 and the solubility (mole fraction) (in benzene, 323.15 K) was 0.0208. For the same compound, the solubility (mole fraction) (in benzene, 328.15 K) was 0.0259, the solubility (mole fraction) (in benzene, 333.15 K) was 0.0303 and the solubility (mole fraction) (in ethanol, 283.15 K) was 0.0057. It also gave a solubility (mole fraction) (in ethanol, 288.15 K) of 0.00581, a solubility (mole fraction) (in ethanol, 293.15 K) of 0.00644 and a solubility (mole fraction) (in ethanol, 298.15 K) of 0.00702. For the same compound, the solubility (mole fraction) (in ethanol, 303.15 K) was 0.00767, the solubility (mole fraction) (in ethanol, 308.15 K) was 0.00837 and the solubility (mole fraction) (in ethanol, 313.15 K) was 0.0089. It also gave a solubility (mole fraction) (in ethanol, 318.15 K) of 0.0103, a solubility (mole fraction) (in ethanol, 323.15 K) of 0.0112 and a solubility (mole fraction) (in ethanol, 328.15 K) of 0.0128. For the same compound, the solubility (mole fraction) (in ethanol, 333.15 K) was 0.0158, the solubility (mole fraction) (in isopropanol, 283.15 K) was 0.00272 and the solubility (mole fraction) (in isopropanol, 288.15 K) was 0.00278. It also gave a solubility (mole fraction) (in isopropanol, 293.15 K) of 0.00296, a solubility (mole fraction) (in isopropanol, 298.15 K) of 0.00327 and a solubility (mole fraction) (in isopropanol, 303.15 K) of 0.00374. The solubility (mole fraction) (in isopropanol, 308.15 K) was 0.0044, the solubility (mole fraction) (in isopropanol, 313.15 K) was 0.00503 and the solubility (mole fraction) (in isopropanol, 318.15 K) was 0.00591. It also gave a solubility (mole fraction) (in isopropanol, 323.15 K) of 0.00643, a solubility (mole fraction) (in isopropanol, 328.15 K) of 0.00846 and a solubility (mole fraction) (in isopropanol, 333.15 K) of 0.0103. It also gave a solubility (mole fraction) (in methanol, 283.15 K) of 0.00638, a solubility (mole fraction) (in methanol, 288.15 K) of 0.00648 and a solubility (mole fraction) (in methanol, 293.15 K) of 0.00713. It also gave a solubility (mole fraction) (in methanol, 298.15 K) of 0.00785, a solubility (mole fraction) (in methanol, 303.15 K) of 0.0088 and a solubility (mole fraction) (in methanol, 308.15 K) of 0.00975. It also gave a solubility (mole fraction) (in methanol, 313.15 K) of 0.0103, a solubility (mole fraction) (in methanol, 318.15 K) of 0.0109 and a solubility (mole fraction) (in methanol, 323.15 K) of 0.0118. The solubility (mole fraction) (in methanol, 328.15 K) was 0.0143, the solubility (mole fraction) (in n-propanol, 283.15 K) was 0.00617 and the solubility (mole fraction) (in n-propanol, 288.15 K) was 0.00619. The solubility (mole fraction) (in n-propanol, 293.15 K) was 0.00669, the solubility (mole fraction) (in n-propanol, 298.15 K) was 0.00754 and the solubility (mole fraction) (in n-propanol, 303.15 K) was 0.00794. The solubility (mole fraction) (in n-propanol, 308.15 K) was 0.00863, the solubility (mole fraction) (in n-propanol, 313.15 K) was 0.0109 and the solubility (mole fraction) (in n-propanol, 318.15 K) was 0.0127. The solubility (mole fraction) (in n-propanol, 323.15 K) was 0.0142, the solubility (mole fraction) (in n-propanol, 328.15 K) was 0.0171 and the solubility (mole fraction) (in n-propanol, 333.15 K) was 0.0199. The solubility (mole fraction) (in toluene, 283.15 K) was 0.00352, the solubility (mole fraction) (in toluene, 288.15 K) was 0.00465 and the solubility (mole fraction) (in toluene, 293.15 K) was 0.00549. It also gave a solubility (mole fraction) (in toluene, 298.15 K) of 0.00651, a solubility (mole fraction) (in toluene, 303.15 K) of 0.0075 and a solubility (mole fraction) (in toluene, 308.15 K) of 0.00858. It also gave a solubility (mole fraction) (in toluene, 313.15 K) of 0.0105, a solubility (mole fraction) (in toluene, 318.15 K) of 0.0118 and a solubility (mole fraction) (in toluene, 323.15 K) of 0.014. For the same compound, the solubility (mole fraction) (in toluene, 328.15 K) was 0.0164 and the solubility (mole fraction) (in toluene, 333.15 K) was 0.0202.
